Where “and” joins values, the source holds several entries; their conditions need not be identical. Identical values can stand only once.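 Results reflect a 48-hour exposure of cells in 96-well plates to compound at five concentrations. The concentration for 50% growth inhibition is given as GI50. TGI denotes the concentration required for complete inhibition of growth.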

Some test systems named below: A549 NSCLC; EKVX NSCLC; HOP-62 NSCLC; KM12 colon; MCF7 breast; MDA-N; NCI-H23 lung; OVCAR-4 ovarian; SW-620 colon; TK-10 renal.
Holding throughout (test): NCI tumour cell line growth inhibition, 48 h

As to `Cc1cc(=O)[nH]c(NN2C(Cl)C(=O)C2c2ccccc2O)n1` (stereo not drawn), the TGI in the assay with A549 NSCLC was greater than 100 µM; in the assay with EKVX NSCLC it was greater than 75.1 µM; with HOP-62 NSCLC it was greater than 100 µM; with KM12 colon it was greater than 100 µM; in the assay with MCF7 breast, greater than 100 µM; in the assay with MDA-N, greater than 100 µM. The TGI with NCI-H23 lung, in the assay on OVCAR-4 ovarian, in the assay with SW-620 colon and in the assay on TK-10 renal was greater than 100 µM in each case.

On to `O=[N+]([O-])C(=C1NCCN1)/C(Cl)=C(\Cl)Br`, for which the TGI is greater than 100 µM in the assay with A549 NSCLC; greater than 60.5 µM with EKVX NSCLC; greater than 100 µM in the assay on HOP-62 NSCLC; greater than 100 µM with KM12 colon; greater than 78.7 µM in the assay on MCF7 breast; greater than 100 µM in the assay with MDA-N. Besides, the TGI is greater than 69.6 µM in the assay on NCI-H23 lung, greater than 100 µM in the assay with OVCAR-4 ovarian, 27.2 µM with SW-620 colon and greater than 100 µM in the assay on TK-10 renal.

Consider `COc1ccc(C(OCC2OC(n3cc(C)c(=O)[nH]c3=O)CC2n2cc(Cn3cc(I)c(=O)[nH]c3=O)nn2)(c2ccccc2)c2ccccc2)cc1` (stereo not drawn), for which the TGI with A549 NSCLC, in the assay on EKVX NSCLC, in the assay on HOP-62 NSCLC, in the assay on KM12 colon, in the assay with MCF7 breast and in the assay on MDA-N was greater than 100 µM each time. The TGI with NCI-H23 lung, in the assay on OVCAR-4 ovarian, in the assay on SW-620 colon and in the assay with TK-10 renal was greater than 100 µM throughout.

In the case of `CN1CCN([C@H]2C[C@H]3[C@@H]4CC=C5C[C@@H](O)CC[C@]5(C)[C@H]4CC[C@]3(C)C2=O)CC1`, the TGI with A549 NSCLC, in the assay with EKVX NSCLC, in the assay on HOP-62 NSCLC, in the assay on KM12 colon, in the assay with MCF7 breast and in the assay with MDA-N was greater than 100 µM in each case. Besides, the TGI with NCI-H23 lung, in the assay with OVCAR-4 ovarian, in the assay with SW-620 colon and with TK-10 renal was greater than 100 µM throughout.

Turning to `CCOC(=O)c1c2ccccc2n2c(N)c(C(N)=O)nnc12`, the TGI with A549 NSCLC was greater than 100 µM; in the assay with EKVX NSCLC it was greater than 100 µM; in the assay with HOP-62 NSCLC, 69.1 µM; in the assay on KM12 colon it was greater than 100 µM; with MCF7 breast it was greater than 100 µM; in the assay with MDA-N, greater than 100 µM. The TGI in the assay on NCI-H23 lung is 66.2 µM; in the assay on OVCAR-4 ovarian, greater than 100 µM; in the assay on SW-620 colon it was greater than 100 µM; in the assay on TK-10 renal, 40.5 µM.

With `Oc1cccc2c(Cl)ccnc12`, the TGI in the assay on A549 NSCLC was greater than 100 µM; with EKVX NSCLC it was greater than 30.8 µM; in the assay on HOP-62 NSCLC, greater than 100 µM; with KM12 colon, 82.3 µM; in the assay with MCF7 breast, greater than 100 µM; in the assay with MDA-N, greater than 100 µM. Besides, the TGI in the assay with NCI-H23 lung is 26.2 µM; in the assay on OVCAR-4 ovarian, 7.45 µM; with SW-620 colon, 29.3 µM; with TK-10 renal it was greater than 100 µM.

Regarding `COc1c(C)c(C/C=C(\C)CCCCO[Si](c2ccccc2)(c2ccccc2)C(C)(C)C)c(OC)c(OC)c1OC`, the TGI with A549 NSCLC was 51 µM; with EKVX NSCLC it was greater than 31.6 µM; in the assay on HOP-62 NSCLC, greater than 46.4 µM; in the assay on KM12 colon it was 26.4 µM; in the assay with MCF7 breast it was greater than 46.4 µM; in the assay on MDA-N it was greater than 46.4 µM. The TGI in the assay on NCI-H23 lung is 38.7 µM; with OVCAR-4 ovarian it was greater than 46.4 µM; with SW-620 colon it was greater than 46.4 µM; in the assay on TK-10 renal, greater than 31.6 µM.

For `Cc1cc(O)c2c(=O)c3ccccc3[nH]c2c1`, the TGI in the assay on A549 NSCLC was greater than 100 µM; in the assay with EKVX NSCLC it was greater than 100 µM; in the assay on HOP-62 NSCLC, 71.2 µM; in the assay on KM12 colon, greater than 100 µM; in the assay on MCF7 breast, greater than 100 µM; in the assay with MDA-N, greater than 100 µM. Moreover, the TGI with NCI-H23 lung is greater than 100 µM; with OVCAR-4 ovarian it was 75.8 µM; in the assay with SW-620 colon, greater than 100 µM; in the assay on TK-10 renal, greater than 100 µM.

For the compound `O=C(CCC(=O)c1ccc(Cl)cc1)NO`, the TGI in the assay on A549 NSCLC, in the assay with EKVX NSCLC, in the assay on HOP-62 NSCLC, with KM12 colon, in the assay on MCF7 breast and in the assay on MDA-N was greater than 100 µM each time. Moreover, the TGI in the assay on NCI-H23 lung, in the assay with OVCAR-4 ovarian, in the assay on SW-620 colon and in the assay on TK-10 renal was greater than 100 µM in each case.

With `CC1(C)N=C(/C(Cl)=[N+](/[O-])C(=O)c2ccc(F)cc2)C(C)(C)N1O`, the TGI is greater than 100 µM in the assay with A549 NSCLC; 40.6 µM in the assay with EKVX NSCLC; 40 µM in the assay with HOP-62 NSCLC; 67.8 µM with KM12 colon; 44 µM with MCF7 breast; 29.9 µM in the assay with MDA-N. The TGI in the assay with NCI-H23 lung was determined as 42.8 µM; in the assay with OVCAR-4 ovarian, 32.2 µM; in the assay on SW-620 colon, 39.2 µM; with TK-10 renal, 29.7 µM.

With `COc1ccc(N2C(=O)C3c4[nH]c5ccccc5c4C4CCC(C(C)(C)C)CC4C3C2=O)c(C)c1` (stereo not drawn), the TGI in the assay on A549 NSCLC, with EKVX NSCLC, in the assay on HOP-62 NSCLC, in the assay with KM12 colon, in the assay on MCF7 breast and in the assay on MDA-N was greater than 100 µM in each case. For the same compound, the TGI with NCI-H23 lung, with OVCAR-4 ovarian, with SW-620 colon and in the assay with TK-10 renal was greater than 100 µM throughout.

As for `CCC[C@@H](O)C[C@@H]1CCC[C@H](C[C@@H](O)CC)N1C`, the TGI with A549 NSCLC, in the assay with EKVX NSCLC, with HOP-62 NSCLC, in the assay on KM12 colon, in the assay with MCF7 breast and in the assay on MDA-N was greater than 100 µM each time. The TGI in the assay with NCI-H23 lung, in the assay with OVCAR-4 ovarian, with SW-620 colon and in the assay with TK-10 renal was greater than 100 µM throughout.

On to `CC(C)/C(Cl)=N\OC(=O)Nc1ccc(S(N)(=O)=O)cc1`, for which the TGI in the assay on A549 NSCLC was 37.9 µM; in the assay with EKVX NSCLC, 32.6 µM; in the assay on HOP-62 NSCLC, greater than 57.2 µM; in the assay with KM12 colon it was 33.3 µM; in the assay on MCF7 breast, 27.7 µM; with MDA-N, 32.9 µM. The TGI is 37.8 µM in the assay with NCI-H23 lung, 40.1 µM in the assay with OVCAR-4 ovarian, 3.41 µM in the assay on SW-620 colon and 31.8 µM in the assay on TK-10 renal.

For the compound `N#CC1=C(N)N(c2ccccc2)C(c2ccco2)C1(C#N)C#N` (stereo not drawn), the TGI is greater than 100 µM in the assay on A549 NSCLC; 73.3 µM in the assay with EKVX NSCLC; 54.3 µM in the assay with HOP-62 NSCLC; 37.2 µM in the assay with KM12 colon; 43.9 µM with MCF7 breast; greater than 100 µM in the assay on MDA-N. Besides, the TGI turned out to be 38.9 µM with NCI-H23 lung, 49 µM in the assay on OVCAR-4 ovarian, 39.2 µM in the assay on SW-620 colon and 31.5 µM in the assay with TK-10 renal.

In the case of `CC1=CC2C(O1)C1C(=O)C=CC(=O)C1=CC2[N+](=O)[O-]` (stereo not drawn), the TGI in the assay with A549 NSCLC is 43.5 µM; with EKVX NSCLC it was 33.8 µM; with HOP-62 NSCLC it was 48.7 µM; in the assay with KM12 colon it was greater than 55.9 µM; in the assay on MCF7 breast it was 14.3 µM; in the assay with MDA-N it was 65.8 µM. Also, the TGI in the assay with NCI-H23 lung is 48.3 µM; with OVCAR-4 ovarian, 31.6 µM; with SW-620 colon, greater than 24.3 µM; with TK-10 renal, 30.6 µM.

For the compound `C(/c1ccco1)=c1/nc(-c2ccccc2)n2c1nc1ccccc12`, the TGI in the assay with A549 NSCLC was greater than 100 µM; in the assay with EKVX NSCLC, 6.07 µM; in the assay with HOP-62 NSCLC, greater than 100 µM; with KM12 colon it was greater than 100 µM; with MCF7 breast, greater than 100 µM; with MDA-N, 54.4 µM. Further, the TGI with NCI-H23 lung, in the assay on OVCAR-4 ovarian, in the assay on SW-620 colon and in the assay with TK-10 renal was greater than 100 µM each time.

`CC(C)CC(=O)OC[n+]1ccc(-c2c(COC(=O)NC(C)C)c(COC(=O)NC(C)C)c3n2CCC3)cc1`: the TGI with A549 NSCLC, in the assay on EKVX NSCLC, in the assay with HOP-62 NSCLC, with KM12 colon, with MCF7 breast and in the assay with MDA-N was greater than 100 µM each time. For the same compound, the TGI in the assay with NCI-H23 lung, with OVCAR-4 ovarian, with SW-620 colon and with TK-10 renal was greater than 100 µM in each case.

With `O=C(NNC(=O)c1ccccc1SSc1ccccc1C(=O)NNC(=O)c1ccccc1S)c1ccccc1S`, the TGI in the assay with A549 NSCLC was greater than 100 µM; in the assay on EKVX NSCLC, greater than 71.5 µM; in the assay on HOP-62 NSCLC it was greater than 100 µM; with KM12 colon it was greater than 100 µM; in the assay with MCF7 breast, greater than 100 µM; with MDA-N, greater than 100 µM. Moreover, the TGI in the assay with NCI-H23 lung was 62.2 µM; in the assay with OVCAR-4 ovarian it was greater than 100 µM; in the assay on SW-620 colon, greater than 100 µM; with TK-10 renal, greater than 100 µM.

For the compound `COc1cc(/C=C2\S/C(=N/Nc3nc(-c4ccc(Br)cc4)cs3)NC2=O)cc(OC)c1OC`, the TGI in the assay with A549 NSCLC was 56.7 µM; in the assay on EKVX NSCLC it was 63.8 µM; with HOP-62 NSCLC, 30.3 µM; in the assay with KM12 colon, 32.8 µM; with MCF7 breast, greater than 100 µM; in the assay on MDA-N it was 75.1 µM. The TGI with NCI-H23 lung was found to be 25.7 µM; in the assay on OVCAR-4 ovarian, 85 µM; with SW-620 colon, 30.8 µM; with TK-10 renal, 36.6 µM.

Regarding `Cc1c2cnccc2c(C)c2c1c1ccccc1n2CCCN`, the GI50 is 0.0471 µM with A549 NSCLC; 0.153 µM with EKVX NSCLC; 0.0687 µM with HOP-62 NSCLC; 0.0374 µM in the assay on KM12 colon; 0.0474 µM in the assay with MCF7 breast; 0.165 µM in the assay with NCI-H23 lung. In addition, the GI50 in the assay with OVCAR-4 ovarian is 0.0661 µM; in the assay with SW-620 colon, 0.035 µM. The TGI with A549 NSCLC is 1.29 µM and 0.447 µM; in the assay with EKVX NSCLC it was 1.37 µM and 0.506 µM; in the assay on HOP-62 NSCLC, 1.52 µM and 0.597 µM; in the assay with KM12 colon, 0.815 µM and 0.286 µM; with MCF7 breast, 1.19 µM and 0.277 µM; in the assay on MDA-N, 1.39 µM. Besides, the TGI in the assay on NCI-H23 lung was 1.18 µM and 0.482 µM; in the assay with OVCAR-4 ovarian it was 0.665 µM and 0.246 µM; with SW-620 colon, 0.878 µM and 0.211 µM; in the assay on TK-10 renal, 1.83 µM.

Regarding `Oc1cc2c3c(c1)c1cc4c(cc1c[n+]3CC2)OCO4`, the TGI with A549 NSCLC is greater than 88.5 µM; in the assay on EKVX NSCLC it was greater than 76.6 µM; in the assay with HOP-62 NSCLC, greater than 100 µM; with KM12 colon, 13.9 µM; with MCF7 breast it was greater than 100 µM; in the assay on MDA-N, greater than 100 µM. Also, the TGI in the assay on NCI-H23 lung is 13.3 µM; with OVCAR-4 ovarian, greater than 48.6 µM; in the assay with SW-620 colon, greater than 36.6 µM; in the assay with TK-10 renal, greater than 75.7 µM.

Values taken from PubChem BioAssay (NCI).
